Results from patent publication US20240252472A1, “COMBINATIONS FOR TREATING CANCER” (Purdue Pharma L.P., priority 2023, published 2024).

Experiments:
Assay type in all cases: in vivo
[1] = test system: subcutaneous plasmacytoma derived from MM1.S cells; experiment: Second subcutaneous plasmacytoma model, CB17-SCID mice; settings: EDO-S101 30 mg/kg i.v. weekly, daratumumab 8 mg/kg i.p. weekly, 4 weeks; vehicle 34 days
Text: For the second subcutaneous human plasmacytoma model, CB17-SCID mice (The Jackson Laboratory) were used. CB17-SCID mice were randomised into groups (n=5). The design of the experiment (treatment doses and time schedule) was identical to the experiment described above with NSG mice except for the inoculation of NK cells, since CB17-SCID mice have their own functional NK cells.
For the second subcutaneous human plasmacytoma model, CB17-SCID mice (20 female mice, 5-6 weeks old; from The Jackson Laboratory) were used. The design of the experiment (treatment doses and time schedule) was identical to the one performed with NSG mice except for the inoculation of human NK cells, since CB17-SCID mice hold their own functional NK cells (Dorshkind et al., J Immunol 134:3798-3801, 1985).
In the second xenograft plasmacytoma model, CB17-SCID mice bearing a subcutaneous plasmacytoma derived from MM1.S cells were randomized to receive vehicle, daratumumab, EDO-S101 or the double combination. Mice were treated with EDO-S101 on Mondays and daratumumab was administered on Tuesdays. […] Furthermore, statistical differences in survival were also found between the combination vs vehicle (58 days±2.739 vs 34 days±2.191 days, respectively; p=0.003).

[2] = test system: subcutaneous plasmacytoma derived from MM.1S cells; experiment: First subcutaneous plasmacytoma model, NSG mice with human NK cells; settings: EDO-S101 30 mg/kg i.v. weekly, daratumumab 8 mg/kg i.p. weekly, 4 weeks; vehicle 30 days
Protocol: For the first subcutaneous human plasmacytoma model, NSG mice (Charles River Laboratories, Wilmington, MA, USA) were subcutaneously inoculated into the right flank with 3×10^6 MM1S in 100 μL RPMI 1640 medium and 100 μL of Matrigel (BD Biosciences). When tumors developed, mice were injected with human NK cells isolated from buffy coats from healthy donors and randomized (4 mice/group) to receive: EDO-S101 (30 mg/kg, iv weekly), daratumumab (8 mg/kg, ip weekly), a combination thereof, or vehicle (PBS vehicle solution with 15% HPBCD, 1.5% acetic acid, and 1.25% NaHCO3). Both, NK cells and the treatments were administered over four consecutive weeks. Caliper measurements of the tumor diameters were performed three times a week, and the tumor volume was estimated as the volume of a 3D ellipse using the following formula: V=4/3π×(a/2)×(b/2)^2, where “a” and “b” correspond to the longest and shortest diameter, respectively. Animals were killed when their tumors reached 2 cm. Differences in tumor volumes between control and treated groups were evaluated using one-way analysis of variance and Dunn's post-hoc tests. […]

MM1S-luc derived tumors = experiment: Disseminated human myeloma model, CB17-SCID mice; settings: EDO-S101 15 mg/kg i.v. weekly, daratumumab 8 mg/kg i.p. weekly, 4 weeks; vehicle 33 days
Protocol: MM1S-luc cells (3×10^6) were injected intravenously (i.v.) into CB17-SCID mice which were determined to have normal NK cells, monocytes and granulocytes (The Jackson Laboratory, Bar Harbor, ME, USA). Tumor development was monitored by non-invasive bioluminescence imaging (BLI) with a Xenogen IVIS 50 system (Caliper Life Sciences, Hopkinton, MA, USA). Mice were randomized into four groups (n=5/group): one receiving vehicle (i.v., weekly), another group receiving EDO-S101 (15 mg/kg i.v., weekly on Tuesdays), another group receiving daratumumab (8 mg/kg i.p., weekly on Wednesdays) and the last group receiving the double combination of EDO-S101+daratumumab. Both drugs were administered over a period of 4 weeks.
CB17-SCID mice bearing MM1S-luc derived tumors were treated with EDO-S101, daratumumab, a combination thereof, or vehicle, in accordance with the methods outlined above. MM1S-Luc cells (3×10^6) were intravenously injected into CB17-SCID mice. After 2 weeks, mice were randomized into four groups: one receiving vehicle (i.v., weekly), another group receiving EDO-S101 (15 mg/kg i.v., weekly on Tuesdays), another group receiving daratumumab (8 mg/kg i.p., weekly on Wednesdays) and the last group received the double combination of EDO-S101+daratumumab. Survival of mice analyzed with a Kaplan-Meier curve. Both drugs were administered over a period of 4 weeks.

Substance: daratumumab: anti-CD38 monoclonal antibody clinically approved for multiple myeloma [reference compound]
- overall median survival [1]: 41 days
- median survival [2]: 34 days
- median survival (MM1S-luc derived tumors): 59 days
